The text below walks through data of US8367328B2, “Method for synthesizing DNA” (Takara Bio Inc., priority 1998, dated 2013).

This assay deals with ExTaq DNA Polymerase. Kind of assay: PCR with ExTaq DNA Polymerase in the presence of cationic complexes. In kind it is biochemical. To be noted: for Amount of amplified DNA relative to No Addition (=1), ExTaq: 100 pg E. coli JM109 genomic DNA, primers Eco1/Eco2, 30 cycles 98°C 5 s–68°C 1 min, FM-BIO 100. From the text: Using hexaamminecobalt (III) chloride ([Co(NH3)6]Cl3) (manufactured by Sigma), tris(ethylenediamine)cobalt (III) chloride ([Co(C2H8N2)3]Cl3) (manufactured by Aldrich), or tris(ethylenediamine)rhodium (III) trichloride•trihydrate ([Rh(C2H8N2)3]Cl3.3H2O) (manufactured by Aldrich), the effects on the amplification reaction by various kinds of DNA polymerases were examined. As the DNA polymerases, TaKaRa Taq DNA Polymerase (hereinafter referred to as “Taq DNA Polymerase” manufactured by Takara Shuzo Co., Ltd.), Pyrobest DNA Polymerase (manufactured by Takara Shuzo Co., Ltd.) and Ex Taq DNA Polymerase (manufactured by Takara Shuzo Co., Ltd.) were used.
A reaction mixture comprising Escherichia coli JM109 genomic DNA as a template, primers Eco1 and Eco2 as a primer pair, and DNA polymerase was prepared, and PCR was carried out. The compositions of the reaction mixture for each enzyme are as follows.
a reaction mixture comprising 5 μl of 10-fold concentrated buffer for TaKaRa ExTaq DNA Polymerase (manufactured by Takara Shuzo Co., Ltd.), 0.2 mM each of dATP, dCTP, dGTP and dTTP, 100 pg of Escherichia coli JM109 genomic DNA, 1.25 U of TaKaRa EX-Taq DNA Polymerase, and 10 pmol each of primers Eco1 and Eco2 (a final volume being 50 μl).
Further, an aqueous solution of the above-mentioned complexes each so as to have a final concentration of 50 μM, 100 μM, or 200 μM was added to the above reaction mixture.
The reaction was carried out in Fast mode by using TaKaRa PCR Thermal Cycler Personal (manufactured by Takara Shuzo Co., Ltd.). The reaction conditions are as follows. When using Taq DNA Polymerase and Pyrobest DNA Polymerase, the reaction in 30 cycles was carried out for each of these reaction mixtures, wherein one cycle of reaction comprises a process consisting of 98° C., 5 seconds—68° C., 2 minutes, and when using ExTaq DNA Polymerase, the reaction in 30 cycles was carried out for each of these reaction mixtures, wherein one cycle of reaction comprises a process consisting of 98° C., 5 seconds—68° C., 1 minute. After the termination of the reaction, 5 μl of the resulting reaction mixture was subjected to electrophoresis on 2% agarose gel containing ethidium bromide in an amount of 0.00005%. The gel after the electrophoresis was subjected to ultraviolet irradiation to visualize the band ascribed to the amplified product, whereby an amplified fragment was confirmed. The amount of amplified DNA was numerically explained by using a fluorescent image analyzer FM-BIO 100 (manufactured by Takara Shuzo Co., Ltd.). […]
After the termination of the reaction, 5 μL of the resulting reaction mixture was subjected to electrophoresis on 2% agarose gel containing ethidium bromide in an amount of 0.00005%. The gel after the electrophoresis was subjected to ultraviolet irradiation to visualize the band ascribed to the amplified product, whereby an amplified fragment was confirmed.
The DNA polymerases used and the composition for the reaction mixture were similar to those in Example 17, except for the cationic complex, where in cases of using Taq DNA Polymerase and Pyrobest DNA Polymerase, hexaamminecobalt (III) chloride was added so as to have a final concentration of 100 μM, or in a case of using ExTaq DNA Polymerase, hexaamminecobalt (III) chloride was added so as to have a final concentration of 50 μM, respectively. Further, the amount of template DNA was added so as to be 1 pg, 5 pg, 10 pg, 100 pg, or 1 ng, respectively.
The reaction was carried out in Fast mode by using TaKaRa PCR Thermal Cycler Personal. The reaction conditions are as follows. When using Taq DNA Polymerase and Pyrobest DNA Polymerase, the reaction in 30 cycles was carried out, wherein one cycle of reaction comprises a process consisting of 98° C., 5 seconds—68° C., 2 minutes. When using ExTaq DNA Polymerase, the reaction in 30 cycles was carried out, wherein one cycle of reaction comprises a process consisting of 98° C., 5 seconds—68° C., 1 minute. […]

As to `N.N.N.N.N.N.[Cl-].[Cl-].[Cl-].[Co+3]` [[Co(NH3)6]Cl3, hexaamminecobalt (III) chloride], the “Amount of amplified DNA relative to No Addition (=1), ExTaq” value (complex 50 μM) was determined as 1.9 and the “Amount of amplified DNA relative to No Addition (=1), ExTaq” value (complex 100 μM) is listed as 1.9. Also, the “Amplification with one-half the usual enzyme amount versus usual amount without addition” value (ExTaq 0.625 U + 50 μM complex vs 1.25 U without addition) is “almost the same level”. The “Primer amount with which a fragment can still be amplified” value (ExTaq, 50 μM complex, primers 2–20 pmol tested, no amplification without addition) stood at 2.5 pmol. Further, for the setting “ExTaq, 50 μM complex, templates 1 pg–1 ng tested, no amplification at 1 pg without addition”, the “Amount of template DNA at which amplification was still possible” value was determined as 1 pg. The “Amplification in low-magnesium reaction mixture” value (ExTaq, 1.25 mM magnesium chloride (usual 2 mM), 10 μM complex, no amplification without addition) is reported as “allowed to amplify”.

For `NCCN.NCCN.NCCN.O.O.O.[Cl][Rh]([Cl])[Cl]` [[Rh(H2NCH2CH2NH2)3]Cl3, tris(ethylenediamine)rhodium (III) trichloride•trihydrate], the “Amount of amplified DNA relative to No Addition (=1), ExTaq” value (complex 50 μM) came to 1.3; the “Amount of amplified DNA relative to No Addition (=1), ExTaq” value (complex 100 μM) is 1.5; the “Amount of amplified DNA relative to No Addition (=1), ExTaq” value (complex 200 μM) stood at 1.7.

As to `NCCN.NCCN.NCCN.[Cl-].[Cl-].[Cl-].[Co+3]` [[Co(H2NCH2CH2NH2)3]Cl3, tris(ethylenediamine)cobalt (III) chloride], the “Amount of amplified DNA relative to No Addition (=1), ExTaq” value is, setting by setting: (complex 50 μM) 2.0; (complex 100 μM) 2.0.
